From patent US20250009745A1, “CDK INHIBITOR” (SHANGHAI QILU PHARMACEUTICAL RESEARCH AND DEVELOPMENT …, priority 2021, published 2025) come the findings set out here.

Common to all, as to assay: CDK enzymology experiment in vitro, capillary mobility shift assay (MSA)
Common to all, as to format: biochemical

One test concerns the target T1, CDK4 (Homo sapiens, UniProt P11802).
T1 construct: purchased Carna Company
The note with it: read-out: CDK4 (nM) inhibitory IC50. In a few lines:
(§1)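 Recombinant kinases tested against peptide substrates in 1× kinase buffer, with compound added as a 100-fold DMSO stock. Top concentration 1, 10 or 30 μM, 3-fold dilutions over 10 points, in duplicate. Substrate conversion read by Caliper EZ Reader, normalised to no-enzyme and no-compound controls, and IC50 fitted with a variable-slope log(inhibitor)–response model.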

In another test the target is T2, CDK2 (Homo sapiens, UniProt P24941).
T2 construct: purchased Carna Company
The conditions noted are these: read-out: CDK2 (nM) inhibitory IC50. In a few lines:
as §1

In the next test the target is T3, CDK6 (Homo sapiens, UniProt Q00534).
T3 construct: purchased Carna Company
T3 sequence (Q00534 whole entry): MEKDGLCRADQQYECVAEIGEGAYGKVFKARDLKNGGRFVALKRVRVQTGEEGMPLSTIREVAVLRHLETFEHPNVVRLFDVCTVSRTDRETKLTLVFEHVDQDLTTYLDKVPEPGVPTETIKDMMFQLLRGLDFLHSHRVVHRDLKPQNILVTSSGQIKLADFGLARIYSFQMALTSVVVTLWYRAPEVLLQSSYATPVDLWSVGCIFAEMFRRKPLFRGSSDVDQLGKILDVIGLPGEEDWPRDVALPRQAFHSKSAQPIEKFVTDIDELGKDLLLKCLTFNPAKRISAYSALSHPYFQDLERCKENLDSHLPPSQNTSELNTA
T3 sequence (P30281 whole entry partner): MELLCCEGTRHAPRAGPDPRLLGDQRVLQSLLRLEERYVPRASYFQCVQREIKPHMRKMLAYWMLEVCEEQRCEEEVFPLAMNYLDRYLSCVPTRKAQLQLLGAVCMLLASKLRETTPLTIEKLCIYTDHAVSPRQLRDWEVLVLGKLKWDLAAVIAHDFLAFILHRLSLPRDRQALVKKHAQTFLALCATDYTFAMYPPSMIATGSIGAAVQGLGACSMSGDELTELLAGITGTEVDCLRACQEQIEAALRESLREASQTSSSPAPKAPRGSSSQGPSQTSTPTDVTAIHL
The note with it: read-out: CDK6 (nM) inhibitory IC50. How it is done:
CDK1/CDK2/CDK4/CDK6/CDK7/CDK9 were purchased from Carna Company; Carliper substrate CTD3/substrate 18/substrate 8 were purchased from Gil Biochemical Company; Dinaciclib/Palbociclib were purchased from Selleckchem Company; DMSO was purchased from Sigma Company; 384-well plates were purchased from Corning Company.
• (1) Preparation of 1×Kinase buffer. • (2) Preparation of compound concentration gradient: Test concentration of the test compound was started at 1 μM, 10 μM or 30 μM, 3-fold dilution, 10 concentrations, detected in duplicate. […] Liquid handler Echo 550 was used to transfer 250 nL of 100-fold final concentration of the compound to the target plate 384-well plate. […] The 384-well plate was centrifuged at 1000 rpm for 30 seconds, and shaken to mix uniformly. • (10) The conversion rate was read with Caliper EZ Reader.
Where, conversion %_sample is the readings of conversion rate of the sample; conversion %_min: the average value of negative control wells, representing the readings of conversion rate of wells without enzyme activity; conversion %_max: the average value of positive control wells, representing the readings of conversion rate of wells without compound inhibition.
Taking the log value of the concentration as the X-axis, and the percentage inhibition rate as the Y-axis, the dose-effect curve was fitted using the log(inhibitor) vs. response—Variable slope of the analysis software GraphPad Prism 5 so as to obtain the IC50 value of each compound on the enzyme activity.
Y=Bottom+(Top−Bottom)/(1+10^((Log IC50−X)*HillSlope)). Calculation formula: […]

T1 sequence (P11802 whole entry): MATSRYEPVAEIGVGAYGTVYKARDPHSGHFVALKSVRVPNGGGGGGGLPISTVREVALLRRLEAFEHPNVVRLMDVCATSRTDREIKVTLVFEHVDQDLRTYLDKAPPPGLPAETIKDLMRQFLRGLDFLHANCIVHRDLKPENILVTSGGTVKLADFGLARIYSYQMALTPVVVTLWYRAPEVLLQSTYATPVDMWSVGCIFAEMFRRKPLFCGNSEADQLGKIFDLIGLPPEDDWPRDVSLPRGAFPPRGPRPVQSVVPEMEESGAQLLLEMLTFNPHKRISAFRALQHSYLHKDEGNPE
T1 sequence (P30281 whole entry partner): as the sequence (P30281 whole entry partner) above

By IC50 is commonly meant the concentration needed to halve the response being measured. Take `Cc1cc(S(=O)(=O)N2CCC(Nc3ncc(C(F)(F)F)c(O[C@H]4CCOC4)n3)CC2)cnc1N1CCNCC1` [Compound 175]: the IC50 on CDK4 is 0.5 to 2.5 nM; on CDK2, under 0.5 nM; on CDK6, 0.5 to 2.5 nM.
As for `Cn1cc(S(=O)(=O)N2CCC(Nc3ncc(C#N)c(OC4CCCC4)n3)CC2)cn1` [Example 6, 4-(Cyclopentyloxy)-2-((1-((1-methyl-1H-pyrazol-4-yl)sulfonyl)piperidin-4-yl)amino)pyrimidine-5-carbonitrile], the IC50 on CDK4 is 2.5 to 10 nM; on CDK2, under 0.5 nM; at CDK6, 0.5 to 2.5 nM.
Take `Cn1cc(-c2ccc(S(=O)(=O)N3CCC(Nc4ncc(C#N)c(N[C@H]5CCC[C@H]5O)n4)CC3)cc2)cn1` [Compound 51]: the IC50 on CDK4 is 2.5 to 10 nM; on CDK2, 0.5 to 2.5 nM; at CDK6 it was 0.5 to 2.5 nM.
Take `C[C@@H]1CN(c2ccc(S(=O)(=O)N3CCC(Nc4ncc(C(F)(F)F)c(O[C@H]5CCOC5)n4)CC3)cc2)C[C@H](C)N1` [Example 169]: the IC50 was 0.5 to 2.5 nM on CDK4, under 0.5 nM on CDK2 and 0.5 to 2.5 nM on CDK6.
Turning to `O=S(=O)(c1ccc(N2CC3CNCC3C2)cc1)N1CCC(Nc2ncc(C(F)(F)F)c(O[C@H]3CCOC3)n2)CC1` (stereo partly drawn) [Compound 191], the IC50 at CDK4 was 0.5 to 2.5 nM; on CDK2, under 0.5 nM; on CDK6, 0.5 to 2.5 nM.
With `O=S(=O)([C@@H]1CCCNC1)N1CCC(Nc2ncc(C(F)(F)F)c(NC3CCCC3)n2)CC1` [Compound 162], the half-inhibitory concentration (IC50) was in the range of 2.5 to 10 nM on CDK4, 2.5 to 10 nM on CDK2 and 10 to 50 nM on CDK6.
Consider `O=S(=O)(c1ccc(N2CC3CC(C2)N3)cc1)N1CCC(Nc2ncc(C(F)(F)F)c(O[C@H]3CCOC3)n2)CC1` [Compound 179], for which the values for the concentration for half-maximal inhibition (IC50) at CDK4, on CDK2 and on CDK6 were 0.5 to 2.5 nM, under 0.5 nM and 0.5 to 2.5 nM, respectively.
On to `O=S(=O)(c1ccc(N2CC3CCC(C2)N3)nc1)N1CCC(Nc2ncc(C(F)(F)F)c(O[C@H]3CCOC3)n2)CC1` [Compound 182], for which the half-inhibitory concentration (IC50) at CDK4 is 0.5 to 2.5 nM; on CDK2, under 0.5 nM; on CDK6, 0.5 to 2.5 nM.
With `O=S(=O)(c1cccc(N2CCNCC2)c1)N1CCC(Nc2ncc(C(F)(F)F)c(O[C@H]3CCOC3)n2)CC1` [Compound 184], the half-maximal inhibitory concentration (IC50) was 2.5 to 10 nM at CDK4, under 0.5 nM on CDK2 and 10 to 50 nM at CDK6.
For `CN1CC=C(c2ccc(S(=O)(=O)N3CCC(Nc4ncc(C#N)c(NC5CCCC5)n4)CC3)cc2)CC1` [Example 16, 4-(Cyclopentylamino)-2-((1-((4-(1-methyl-1,2,3,6-tetrahydropyridin-4-yl)phenyl)sulfonyl)piperidin-4-yl)amino)pyrimidine-5-carbonitrile], the IC50 at CDK4, at CDK2 and on CDK6 was 0.5 to 2.5 nM in each case.
As to `CN(C)CCn1cc(S(=O)(=O)N2CCC(Nc3ncc(C(F)(F)F)c(O[C@H]4CCOC4)n3)CC2)cn1` [Compound 157], the half-maximal inhibitory concentration (IC50) on CDK4 was 2.5 to 10 nM; on CDK2, under 0.5 nM; on CDK6, 10 to 50 nM.
On to `O=S(=O)(c1ccc(C2=CCNCC2)c(F)c1)N1CCC(Nc2ncc(C(F)(F)F)c(O[C@H]3CCOC3)n2)CC1` [Compound 121], for which the figures for the half-maximal inhibitory concentration (IC50) at CDK4, at CDK2 and on CDK6 were 0.5 to 2.5 nM, under 0.5 nM and 0.5 to 2.5 nM, respectively.
With `O=S(=O)(c1ccc(C2=CCNCC2)cn1)N1CCC(Nc2ncc(C(F)(F)F)c(O[C@H]3CCOC3)n2)CC1` [Compound 176], the figures for the half-inhibitory concentration (IC50) on CDK4, at CDK2 and at CDK6 were 0.5 to 2.5 nM, under 0.5 nM and 0.5 to 2.5 nM, respectively.
On to `C[C@H]1CN(c2ccc(S(=O)(=O)N3CCC(Nc4ncc(C(F)(F)F)c(O[C@H]5CCOC5)n4)CC3)cn2)CCN1` [Compound 188], for which the IC50 was 0.5 to 2.5 nM on CDK4, under 0.5 nM at CDK2 and 0.5 to 2.5 nM at CDK6.
For the compound `C[C@@H]1CN(c2ccc(S(=O)(=O)N3CCC(Nc4ncc(C(F)(F)F)c(O[C@H]5CCOC5)n4)CC3)cn2)C[C@@H](C)N1` [Compound 207], the 50% inhibitory concentration (IC50) at CDK4 was in the range of 2.5 to 10 nM; at CDK2, 0.5 to 2.5 nM; at CDK6, 0.5 to 2.5 nM.
Regarding `O=S(=O)(c1ccc(N2C3CCC2CNC3)nc1)N1CCC(Nc2ncc(C(F)(F)F)c(O[C@H]3CCOC3)n2)CC1` [Compound 183], the figures for the 50% inhibitory concentration (IC50) at CDK4, on CDK2 and on CDK6 were 0.5 to 2.5 nM, under 0.5 nM and 0.5 to 2.5 nM, respectively.
`O=S(=O)(c1ccc(C2CCNCC2)cc1)N1CCC(Nc2ncc(C(F)(F)F)c(O[C@H]3CCOC3)n2)CC1` [Compound 130]: the concentration for half-maximal inhibition (IC50) at CDK4 was 0.5 to 2.5 nM; at CDK2, under 0.5 nM; at CDK6, 0.5 to 2.5 nM.
Regarding `Cn1cc(-c2ccc(S(=O)(=O)N3CCC(Nc4ncc(C#N)c(N[C@@H]5CC[C@H](O)C5)n4)CC3)cc2)cn1` (single isomer, unassigned) [Compound 87], the 50% inhibitory concentration (IC50) at CDK4, on CDK2 and on CDK6 was 0.5 to 2.5 nM in each case.
For `C[C@@H]1CN(c2ccc(S(=O)(=O)N3CCC(Nc4ncc(C(F)(F)F)c(O[C@H]5CCOC5)n4)CC3)cc2)C[C@@H](C)N1` [Compound 208], the 50% inhibitory concentration (IC50) lay within 2.5 to 10 nM at CDK4, 0.5 to 2.5 nM at CDK2 and 0.5 to 2.5 nM at CDK6.
With `O=S(=O)(c1ccc(C2CCNCC2)nc1)N1CCC(Nc2ncc(C(F)(F)F)c(O[C@H]3CCOC3)n2)CC1` [Compound 174], the IC50 on CDK4 was 0.5 to 2.5 nM; at CDK2 it was under 0.5 nM; at CDK6 it was 0.5 to 2.5 nM.
For `O=S(=O)(c1ccc(N2CCNCC2)cn1)N1CCC(Nc2ncc(C(F)(F)F)c(O[C@H]3CCOC3)n2)CC1` [Compound 178], the figures for the IC50 at CDK4, at CDK2 and at CDK6 were 0.5 to 2.5 nM, under 0.5 nM and 0.5 to 2.5 nM, respectively.
Consider `O=S(=O)(c1ccc(C2=CCNCC2)nc1)N1CCC(Nc2ncc(C(F)(F)F)c(O[C@H]3CCOC3)n2)CC1` [Compound 173], for which the results for the half-inhibitory concentration (IC50) at CDK4, at CDK2 and on CDK6 were 0.5 to 2.5 nM, under 0.5 nM and 0.5 to 2.5 nM, respectively.
`Cc1nnc(-c2ccc(S(=O)(=O)N3CCC(Nc4ncc(C(F)(F)F)c(O[C@H]5CCOC5)n4)CC3)cc2)o1` [Compound 161]: the values for the concentration for half-maximal inhibition (IC50) on CDK4, on CDK2 and at CDK6 were 0.5 to 2.5 nM, under 0.5 nM and 0.5 to 2.5 nM, respectively.
Take `O=S(=O)(c1ccc(N2CC[C@@H](O)C2)cc1)N1CCC(Nc2ncc(C(F)(F)F)c(O[C@H]3CCOC3)n2)CC1` [Compound 140]: the IC50 at CDK4, at CDK2 and at CDK6 was 0.5 to 2.5 nM in each case.
`O=S(=O)(c1cnn(C2CCNCC2)c1)N1CCC(Nc2ncc(C(F)(F)F)c(O[C@H]3CCOC3)n2)CC1` [Compound 119]: the figures for the IC50 on CDK4, at CDK2 and on CDK6 were 0.5 to 2.5 nM, under 0.5 nM and 0.5 to 2.5 nM, respectively.
On to `Cc1cc(S(=O)(=O)N2CCC(Nc3ncc(C(F)(F)F)c(O[C@H]4CCOC4)n3)CC2)ccc1C1CCCNC1` (stereo partly drawn) [Compound 192], for which the IC50 on CDK4 is 0.5 to 2.5 nM; on CDK2 it was under 0.5 nM; at CDK6 it was 0.5 to 2.5 nM.
In the case of `N#Cc1cnc(NC2CCN(S(=O)(=O)c3ccc(N4CCC(O)CC4)cc3)CC2)nc1NC1CCCC1` [Compound 107], the IC50 is 0.5 to 2.5 nM on CDK4, under 0.5 nM at CDK2 and 0.5 to 2.5 nM on CDK6.
As for `O=S(=O)(c1ccc(C2CNC2)c(F)c1)N1CCC(Nc2ncc(C(F)(F)F)c(O[C@H]3CCOC3)n2)CC1` [Compound 160], the IC50 on CDK4 was 2.5 to 10 nM; at CDK2, 0.5 to 2.5 nM; on CDK6, 0.5 to 2.5 nM.
